Results published in the supplement of paper PMC10307832.

Legend:
Experiment in all cases: relative viability (nuclei count vs DMSO), 5 days (fraction); higher = more cells survive
[1] = compound: NC(=O)c1ccc(N(C(N)=O)c2c(F)cccc2F)nc1-c1ccc(F)cc1F [VX-702] + CCNC(=O)c1noc(-c2cc(C(C)C)c(O)cc2O)c1-c1ccc(CN2CCOCC2)cc1 [Luminespib] (partner 0.01 µM)
Summary of the method: (§1)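 Nuclei were stained with Hoechst during a one-step fixation (final 0.05% Triton X-100, 1% formaldehyde, 1 ug/ml Hoechst) carried out 5 days after dosing, then counted on 4× images. The cells, lung cancer lines in 1536-well plates, had been dosed by pin tool the day after seeding with one drug alone or a fixed anchor-drug dose plus five library-drug doses (not always all listed) in √10 steps. Relative viability is the nuclei count in treated wells divided by that in vehicle wells, and each value is the median of duplicate plates.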

[2] = compound: CC(C)(C)c1nc(-c2cccc(NS(=O)(=O)c3c(F)cccc3F)c2F)c(-c2ccnc(N)n2)s1 [Dabrafenib] + C[C@]1(O)C[C@@H](c2nc(-c3ccc4ccc(-c5ccccc5)nc4c3)c3c(N)nccn32)C1 [Linsitinib] (partner 1 µM)
Summary of the method: as §1

[3] = compound: CC(C)(C)c1nc(-c2cccc(NS(=O)(=O)c3c(F)cccc3F)c2F)c(-c2ccnc(N)n2)s1 [Dabrafenib] + COc1cccc2cc(-c3nc([C@H]4CC[C@H](C(=O)O)CC4)n4ncnc(N)c34)[nH]c12 [OSI-027] (partner 0.5 µM)
Summary of the method: as §1

[4] = compound: CC(C)(C)c1nc(-c2cccc(NS(=O)(=O)c3c(F)cccc3F)c2F)c(-c2ccnc(N)n2)s1 [Dabrafenib] + N=C(N)NC(=N)NCCc1ccccc1 [Phenformin] (partner 250 µM)
Summary of the method: as §1

| Cell Line | relative viability ([1]; first compound 0.02 µM) | relative viability ([1]; first compound 0.2 µM) | relative viability ([1]; first compound 0.6325 µM) | relative viability ([1]; first compound 2 µM) | relative viability ([2]; first compound 0.003 µM) | relative viability ([2]; first compound 0.009487 µM) | relative viability ([2]; first compound 0.03 µM) | relative viability ([2]; first compound 0.09487 µM) | relative viability ([2]; first compound 0.3 µM) | relative viability ([3]; first compound 0.003 µM) | relative viability ([3]; first compound 0.009487 µM) | relative viability ([3]; first compound 0.03 µM) | relative viability ([3]; first compound 0.09487 µM) | relative viability ([3]; first compound 0.3 µM) | relative viability ([4]; first compound 0.003 µM) | relative viability ([4]; first compound 0.009487 µM) | relative viability ([4]; first compound 0.03 µM) | relative viability ([4]; first compound 0.09487 µM) | relative viability ([4]; first compound 0.3 µM) |
| --- | --- | --- | --- | --- | --- | --- | --- | --- | --- | --- | --- | --- | --- | --- | --- | --- | --- | --- | --- |
| SW 1573 | 0.215 | 0.138 | 0.261 | 0.232 | 0.827 | 0.844 | 0.722 | 0.792 | 0.821 | 0.463 | 0.61 | 0.525 | 0.623 | 0.548 | 0.371 | 0.445 | 0.324 | 0.465 | 0.541 |
| UMC-11 | 0.993 | 0.865 | 0.805 | 1.11 | 1.12 | 1.09 | 0.985 | 0.982 | 1.03 | 0.439 | 0.504 | 0.481 | 0.475 | 0.49 | 0.289 | 0.331 | 0.332 | 0.329 | 0.279 |
